Here are results for 2 molecules from paper PMC10291704 (Biology of blood and marrow transplantation : journal of …, 2019).

Where “and” joins values, the source holds several entries; their conditions need not be identical. Equal entries are not always repeated. Where two headings read alike, the source gives them in different places. A value given as a limit tells only on which side of the number the result lay.

Data set [1] is classed as in vivo, human.
Data set [2] relates to human cell-line model of busulfan-resistant acute myelogenous leukemia. The conditions noted are these: cited from earlier work; for inhibitory concentration: busulfan-resistant AML cell line.
The conditions of data set [3]: cited from earlier work.
The conditions of data set [4]: 16 patients, 40 mg/m^2/day; cited from earlier work.
For data set [5] the following is noted: between WBC of 0.3 × 10^3 /μL and 259 × 10^3 /μL; cited from earlier work.

Broadly, the AUC is concentration integrated over time. A lower AUC goes with less exposure. A word on the clearance: it is a measure of how efficiently the substance is removed, as volume per time. A higher clearance goes with a high capacity for elimination. The AUC(0-t) is exposure summed from dosing to a finite time, without extrapolation to infinity. A high value points to high exposure. `Nc1nc(Cl)nc2c1ncn2[C@@H]1O[C@H](CO)[C@@H](O)[C@@H]1F` [clo-fara, clofarabine]: in data set [1] (bootstrap mean value), the Additive error is recorded as 0.36 ng/mL, the “Proportional residual unexplained variability” value turned out to be 32.7% and the “Volume of the peripheral compartment (Vp)” value came to 47.3 L/15kg. The “between-subject variability for volume of central compartment” value in data set [1] (final model) was determined as 40%. Moreover, in data set [1] (final model parameter estimate), the Additive error is given as 0.36 ng/mL; the “Proportional residual unexplained variability” value is 33% and 33.2%; the “Volume of the peripheral compartment (Vp)” value is 47 L/15kg and 47.4 L/15kg. Further, in data set [1] (human, in vivo), the AUC is 3300 ng·h/mL, the “Inter-compartmental CL” value was 9.82 L/h/kg, the “Maturation half-time (Thalf) of age effect on CL” value amounted to 0.41 years and the “Typical value for clo-fara CL” value is listed as 23.4 L/h/15kg. In addition, in data set [1] (human, in vivo), the “between-subject variability for clo-fara CL” value worked out at 26%, the clearance was 390 mL/min and the “intercompartmental CL” value was found to be 9.8 L/h/15kg. The same molecule showed an AUC at 4 daily doses in data set [1] (human, in vivo, 10 mg/m2) of 1200 ng·h/mL. Besides, in data set [1] (human, in vivo, 10 mg/m2, AUC0–24, median (range)), the AUC(0-t) came to 300 ng·h/mL. In addition, the AUC at 4 daily doses in data set [1] (human, in vivo, 30 mg/m2) was 3300 ng·h/mL. This molecule also displayed an AUC(0-t) in data set [1] (human, in vivo, 30 mg/m2, AUC0–24, median (range)) of 820 ng·h/mL. For the same molecule, in data set [1] (human, in vivo, 40 mg/m2), the “AUC0–24, median (range)” value is 1.04 (0.87 – 4.0) mg•hr/L and the area under the curve (AUC) at 5 daily doses stood at 5200 ng·h/mL. Further, the AUC(0-t) in data set [1] (human, in vivo, 40 mg/m2, AUC0–24, median (range)) worked out at 780 ng·h/mL. The molecule also gave an AUC(0-t) in data set [1] (human, in vivo, 40 mg/m2, AUC0–24, outlier value of one subject) of 4000 ng·h/mL. The AUC(0-t) in data set [1] (human, in vivo, 40 mg/m2, AUC0–24 of the other subjects) is at most 1170 ng·h/mL. The inhibitory concentration in data set [2] was 0.06 µM. Besides, the “difference in cytotoxic activity, clofarabine vs fludarabine” value in data set [2] (from inhibitory concentrations) is around 50 fold. In addition, in data set [3] (24-hour urine collections in pediatric studies), the “dose excreted in the urine unchanged” value is reported as 49–60%. The “hepatic and non-hepatic metabolic conversion” value in data set [3] is 0.2%. Further, in data set [4], the “variability observed in clo-fara PK parameters (CL, AUC, volume of distribution)” value is given as 2–3 fold. Moreover, the “increase of predicted volume of the central compartment with WBC” value in data set [5] is on record as 2.38 fold.

As for `Nc1nc(F)nc2c1ncn2[C@@H]1O[C@H](CO)[C@@H](O)[C@@H]1O` [fludarabine], the inhibitory concentration in data set [2] is 3.0 µM.
